EP4524128A1, “BENZOPHENONE CROSSLINKERS” (Hemoteq AG, priority 2023, dated 2025)
“Also recorded” adds a separate entry of the source.

Assay: Solubility in solvents and monomer
Type: physicochemical

Solubility in THF | Solubility in acetone (acetone) | Solubility in chloroform (chloroform) | Solubility in deionized water (deionized water) | Solubility in ethanol (ethanol) | Solubility in ethyl acetate (ethyl acetate) | Solubility in n-heptane (n-heptane) | Compound | Solubility in N-vinylpyrrolidone
Freely soluble |  |  |  |  |  |  | C=C(C)C(=O)NCCCNC(=O)c1ccc(C(=O)c2ccccc2)cc1 [APMA-BBC, N-[3-(4-benzoylbenzamido)propyl]methacrylamide] | readily soluble; also recorded: Freely soluble
moderately soluble | insoluble | highly soluble | insoluble | insoluble | insoluble | slightly to sparingly soluble | C=C(C)C(=O)OCCOC(=O)c1ccc(C(=O)c2ccccc2)cc1 [HEMA-BBA, 1-(4-benzoylbenzoic acid)-2-methaacrylic acid-glycolester] | only slowly soluble
